Reference: patent US9302999B2, “Substituted triazoles as herbicides” (E. I. DU PONT DE NEMOURS AND COMPANY, priority 2012, dated 2016)

Legend:
Format in all cases: in vivo
[1] = system: crabgrass, large (large crabgrass, Digitaria sanguinalis); test: Test A pre-/postemergence: crabgrass, large
Outline: (§1)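 Rating scale 0–100 (100 = complete control), visual, ~10 days after application in the greenhouse. Applications: preemergence directed soil spray; postemergence at 1–2 leaves.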

[2] = system: lambsquarters (Chenopodium album); test: Test C pre-/postemergence: lambsquarters
Outline: (§2)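 Visual injury scored 0–100 (100 = complete control) against untreated controls after 13–15 greenhouse days. Surfactant-containing solvent formulations applied either to soil after sowing (loam/sand) or over 1- to 4-leaf plants, 2–18 cm tall.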

[3] = system: morningglory (Ipomoea coccinea); test: Test C pre-/postemergence: morningglory
Outline: as §2

[4] = system: wheat (Triticum aestivum); test: Test A pre-/postemergence: wheat
Outline: as §1

[5] = system: nutsedge, yellow (yellow nutsedge, Cyperus esculentus); test: Test C pre-/postemergence: nutsedge, yellow
Outline: as §2

[6] = system: barnyardgrass (Echinochloa crus-galli); test: Test A pre-/postemergence: barnyardgrass
Outline: as §1

[7] = system: pigweed (Amaranthus retroflexus); test: Test A pre-/postemergence: pigweed
Outline: as §1

[8] = system: foxtail, giant (giant foxtail, Setaria faberii); test: Test C pre-/postemergence: foxtail, giant
Outline: as §2

[9] = system: corn (Zea mays); test: Test C pre-/postemergence: corn
Outline: as §2

[10] = system: blackgrass (Alopecurus myosuroides); test: Test C pre-/postemergence: blackgrass
Outline: as §2

[11] = system: large crabgrass (Digitaria sanguinalis); test: Test C pre-/postemergence: large crabgrass
Outline: as §2

[12] = Postemergence, 125 g ai/ha, 0 to 100 scale, 0 is no effect, 100 is complete control
[13] = Postemergence, 500 g ai/ha, 0 to 100 scale, 0 is no effect, 100 is complete control
[14] = Preemergence, 125 g ai/ha, 0 to 100 scale where 0 is no effect and 100 is complete control
[15] = Preemergence, 500 g ai/ha, 0 to 100 scale (0 no effect, 100 complete control)
[16] = Postemergence, 31 g ai/ha, scale 0 to 100 (0 no effect, 100 complete control)
[17] = Postemergence, 62 g ai/ha, scale 0 to 100 (0 no effect, 100 complete control)
[18] = Postemergence, 125 g ai/ha, scale 0 to 100, 0 no effect, 100 complete control
[19] = Postemergence, 250 g ai/ha, scale 0 to 100 (0 no effect, 100 complete control)
[20] = Preemergence, 31 g ai/ha, scale 0 (no effect) to 100 (complete control)
[21] = Preemergence, 62 g ai/ha, scale of 0 to 100, 0 is no effect, 100 is complete control
[22] = Preemergence, 125 g ai/ha, scale 0 to 100, 0 no effect, 100 complete control
[23] = Preemergence, 250 g ai/ha, scale 0 to 100, 0 no effect, 100 complete control
[24] = Postemergence, 250 g ai/ha, scale 0 to 100
[25] = Postemergence, 500 g ai/ha, visual rating on 0 to 100 scale (0 no effect, 100 complete control), approximately ten days
[26] = Preemergence, 31 g ai/ha, scale of 0 to 100, 0 is no effect, 100 is complete control

CCCc1nn(-c2ccc(F)c(F)c2)nc1Oc1ccnc(C(F)(F)F)c1 [Compound 172]
40: Plant response rating, Wheat [4, 12] | Plant response rating, Corn [9, 23]
60: Plant response rating, Blackgrass [10, 18] | Plant response rating, Blackgrass [10, 24]
20: Plant response rating, Corn [9, 16] | Plant response rating, Corn [9, 17] | Plant response rating, Crabgrass, Large [11, 16]
65: Plant response rating, Morningglory [3, 16] | Plant response rating, Crabgrass, Large [11, 18]
50: Wheat plant response rating [4, 13] | Plant response rating, Wheat [4, 14]
90: Plant response rating, Crabgrass, Large [1, 12] | Plant response rating, Lambsquarters [2, 20] | Plant response rating, Lambsquarters [2, 21] | Plant response rating, Barnyardgrass [6, 12] | Barnyardgrass plant response rating [6, 13] | Plant response rating, Blackgrass [10, 20]
70: Plant response rating, Morningglory [3, 23] | Plant response rating, Wheat [4, 15]
0: Plant response rating, Nutsedge, Yellow [5, 20]
15: Plant response rating, Nutsedge, Yellow [5, 18] | Plant response rating, Nutsedge, Yellow [5, 19] | Plant response rating, Corn [9, 22]
98: Plant response rating, Lambsquarters [2, 16] | Plant response rating, Lambsquarters [2, 17] | Plant response rating, Lambsquarters [2, 18] | Plant response rating, Lambsquarters [2, 19]
55: Plant response rating, Morningglory [3, 22] | Plant response rating, Crabgrass, Large [11, 17]
30: Plant response rating, Morningglory [3, 20] | Plant response rating, Corn [9, 24]
10: Plant response rating, Nutsedge, Yellow [5, 16] | Plant response rating, Nutsedge, Yellow [5, 17] | Plant response rating, Blackgrass [10, 16]
5: Plant response rating, Nutsedge, Yellow [5, 21] | Plant response rating, Nutsedge, Yellow [5, 22] | Plant response rating, Nutsedge, Yellow [5, 23] | Plant response rating, Corn [9, 20] | Plant response rating, Corn [9, 21]
95: Plant response rating, Lambsquarters [2, 22] | Plant response rating, Lambsquarters [2, 23] | Plant response rating, Foxtail, Giant [8, 24] | Plant response rating, Blackgrass [10, 21] | Plant response rating, Blackgrass [10, 22] | Plant response rating, Blackgrass [10, 23] | Plant response rating, Crabgrass, Large [11, 24]
100: Crabgrass, Large plant response rating [1, 13] | Plant response rating, Crabgrass, Large [1, 14] | Plant response rating, Crabgrass, Large [1, 15] | Plant response rating, Pigweed [7, 12] | Pigweed plant response rating [7, 13] | Plant response rating, Pigweed [7, 14] | Plant response rating, Pigweed [7, 15] | Plant response rating, Foxtail, Giant [8, 20] | Plant response rating, Foxtail, Giant [8, 21] | Plant response rating, Foxtail, Giant [8, 22] | Plant response rating, Foxtail, Giant [8, 23] | Plant response rating, Crabgrass, Large [11, 20] | Plant response rating, Crabgrass, Large [11, 21] | Plant response rating, Crabgrass, Large [11, 22] | Plant response rating, Crabgrass, Large [11, 23]
25: Plant response rating, Corn [9, 18] | Plant response rating, Blackgrass [10, 17]
80: Plant response rating, Morningglory [3, 17] | Plant response rating, Morningglory [3, 19] | Plant response rating, Foxtail, Giant [8, 18]
35: Plant response rating, Morningglory [3, 21] | Plant response rating, Foxtail, Giant [8, 16] | Plant response rating, Foxtail, Giant [8, 17]

CCc1nn(-c2ccc(F)cc2)nc1Cc1ccnc(C(F)(F)F)c1 [Compound 154]
100: Plant response rating, Crabgrass, Large [1, 12] | Crabgrass, Large plant response rating [1, 25] | Plant response rating, Crabgrass, Large [1, 14] | Plant response rating, Crabgrass, Large [1, 15] | Plant response rating, Lambsquarters [2, 26] | Plant response rating, Lambsquarters [2, 21] | Plant response rating, Lambsquarters [2, 22] | Plant response rating, Lambsquarters [2, 23] | Plant response rating, Barnyardgrass [6, 14] | Plant response rating, Barnyardgrass [6, 15] | Plant response rating, Pigweed [7, 12] | Pigweed plant response rating [7, 25] | Plant response rating, Pigweed [7, 14] | Plant response rating, Pigweed [7, 15] | Plant response rating, Foxtail, Giant [8, 26] | Plant response rating, Foxtail, Giant [8, 21] | Plant response rating, Foxtail, Giant [8, 22] | Plant response rating, Foxtail, Giant [8, 23] | Plant response rating, Crabgrass, Large [11, 21] | Plant response rating, Crabgrass, Large [11, 22] | Plant response rating, Crabgrass, Large [11, 23]
40: Plant response rating, Morningglory [3, 16]
0: Plant response rating, Morningglory [3, 26] | Plant response rating, Wheat [4, 14] | Plant response rating, Nutsedge, Yellow [5, 26] | Plant response rating, Corn [9, 26]
50: Wheat plant response rating [4, 25]
5: Plant response rating, Morningglory [3, 21] | Plant response rating, Morningglory [3, 22] | Plant response rating, Corn [9, 21]
15: Plant response rating, Nutsedge, Yellow [5, 18] | Plant response rating, Nutsedge, Yellow [5, 24] | Plant response rating, Corn [9, 23] | Plant response rating, Blackgrass [10, 16]
98: Plant response rating, Lambsquarters [2, 17] | Plant response rating, Lambsquarters [2, 18] | Plant response rating, Lambsquarters [2, 24] | Plant response rating, Morningglory [3, 24]
75: Plant response rating, Lambsquarters [2, 16] | Plant response rating, Morningglory [3, 17] | Plant response rating, Morningglory [3, 18] | Plant response rating, Foxtail, Giant [8, 24]
25: Plant response rating, Morningglory [3, 23]
45: Plant response rating, Crabgrass, Large [11, 18]
35: Plant response rating, Blackgrass [10, 17]
55: Plant response rating, Foxtail, Giant [8, 18] | Plant response rating, Blackgrass [10, 18]
30: Plant response rating, Crabgrass, Large [11, 17]
90: Plant response rating, Barnyardgrass [6, 12] | Barnyardgrass plant response rating [6, 25] | Plant response rating, Blackgrass [10, 26] | Plant response rating, Blackgrass [10, 21] | Plant response rating, Blackgrass [10, 22] | Plant response rating, Blackgrass [10, 23] | Plant response rating, Crabgrass, Large [11, 26]
20: Plant response rating, Wheat [4, 12] | Plant response rating, Wheat [4, 15] | Plant response rating, Foxtail, Giant [8, 16] | Plant response rating, Foxtail, Giant [8, 17] | Plant response rating, Corn [9, 16] | Plant response rating, Corn [9, 17] | Plant response rating, Corn [9, 24] | Plant response rating, Crabgrass, Large [11, 16]
10: Plant response rating, Nutsedge, Yellow [5, 16] | Plant response rating, Nutsedge, Yellow [5, 17] | Plant response rating, Corn [9, 22]
70: Plant response rating, Blackgrass [10, 24] | Plant response rating, Crabgrass, Large [11, 24]
